Reference: US11951197B2, “Use of volatile compounds to modulate the perception of floral muguet” (FIRMENICH SA, priority 2018, dated 2024)

Columns and labels:
Olfr16 = molecular target: T1, Olfr16 (Mus musculus, UniProt Q62007); test: LYRAL® dose-response with a steady concentration of test compound (EC50-fold shift); type: cell-based; settings: Olfr16 (mouse ortholog); LYRAL® + steady concentration of compound vs LYRAL® alone
T1 construct: expressed in transfected cells
T1 sequence (Q62007 1-309): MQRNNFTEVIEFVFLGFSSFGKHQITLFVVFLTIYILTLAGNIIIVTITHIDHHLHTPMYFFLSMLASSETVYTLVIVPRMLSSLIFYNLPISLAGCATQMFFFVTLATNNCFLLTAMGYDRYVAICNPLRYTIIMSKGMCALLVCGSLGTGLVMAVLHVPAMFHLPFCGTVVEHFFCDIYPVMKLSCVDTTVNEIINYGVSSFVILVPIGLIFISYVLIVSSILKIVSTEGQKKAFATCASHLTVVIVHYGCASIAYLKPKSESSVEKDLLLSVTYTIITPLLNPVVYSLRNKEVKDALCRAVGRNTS
Description: (§1) LYRAL® enhancement specificity was tested on compounds that were structurally similar to enhancers identified. Dose response curves to LYRAL® were obtained in the presence of a steady concentration of a test compound and compared to a dose-response curve of LYRAL® alone. The resulting enhancement was quantified by means of EC50-fold shift (potency increase) and the efficacy span ratio (efficacy increase).
The EC50-fold shift was obtained by dividing the EC50 of LYRAL®+compound by the reference EC50 of LYRAL® alone. The span ratio was obtained by dividing the span of LYRAL®+compound by the reference span of LYRAL® alone.

OR10J5 [1] = molecular target: T2, OR10J5 (Homo sapiens, UniProt Q8NHC4); test: LYRAL® dose-response with serial enhancer concentrations, allosteric EC50 shift model; type: cell-based
T2 construct: Flag; Rho (rhodopsin-derived tag); expressed in transfected cells
T2 sequence (Q8NHC4 1-309): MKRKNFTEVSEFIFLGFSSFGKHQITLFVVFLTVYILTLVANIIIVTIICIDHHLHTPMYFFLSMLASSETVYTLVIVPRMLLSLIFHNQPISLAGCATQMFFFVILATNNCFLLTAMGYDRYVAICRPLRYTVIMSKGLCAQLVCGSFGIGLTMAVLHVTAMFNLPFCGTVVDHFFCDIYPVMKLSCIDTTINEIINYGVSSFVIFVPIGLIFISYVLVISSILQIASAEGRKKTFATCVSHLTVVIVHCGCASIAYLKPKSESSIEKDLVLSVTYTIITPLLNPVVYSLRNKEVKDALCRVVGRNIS
Description: Functional dose-response experiments were performed to reveal the allosteric nature of the interaction between 3-(1,3-benzodioxol-5-yl)-2-methylpropanal, 3-(4-methylcyclohex-3-en-1-yl)butanal, 2,6-dimethylhept-5-enal and heptanal and OR10J5. The level of enhancement of OR10J5's activation was evaluated at distinct concentrations of each enhancer. Using the same cell-based assay described earlier, dose response curves of OR10J5 to LYRAL® in the presence of serial concentrations of the enhancers spanning from 0 to 600 μM were performed, see FIG. 5. The curves were obtained by applying the simplified Allosteric EC50 shift effect equation (available in Prism7) derived from the ternary complex interaction model. The enhancement levels recorded were not linearly dependent on the concentration of the enhancer, and the following key parameters values for α (the cooperativity factor) and KB (the equilibrium dissociation constant of the enhancer) were obtained from the model for each enhancer: 3-(1,3-benzodioxol-5-yl)-2-methylpropanal, α=6.3 and KB=10 μM; 3-(4-methylcyclohex-3-en-1-yl)butanal, α=7.5 and KB=15 μM; 2,6-dimethylhept-5-enal, α=4.1 and KB=16 μM; and heptanal; α=3.2 and KB=51 μM. α>1 is indicative of positive allosteric modulation.

[2] = molecular target: T3, OR10J5 olfactory receptor (Homo sapiens, UniProt Q8NHC4); test: Dose-response confirmation of enhancer candidates, alone and with EC20 LYRAL®; type: cell-based; settings: response to LYRAL® raised beyond EC20 without measurable intrinsic activity
T3 construct: Flag; Rho (rhodopsin-derived tag); expressed in transfected cells
T3 sequence (Q8NHC4 1-309): T2 sequence (Q8NHC4 1-309)
Description: (§2) A dose response curve showing the activation of OR10J5 in response to the floral muguet compound 3-(4-hydroxy-4-methylpentyl)cyclohex-3-ene-1-carbaldehyde, 4-(4-hydroxy-4-methylpentyl)cyclohex-3-ene-1-carbaldehyde or a mixture thereof (sold under the tradename LYRAL®, hereinafter referred to as “LYRAL®”) is shown in FIG. 1. Using a cell-based assay, OR10J5 activity was tested in a HEK293T cell line wherein the endogenous chaperone RTP1 gene has been activated and the odorant receptor chaperone was expressed according to the methods disclosed in International Patent Application Publication No. WO2016/201153 A1. The Flag-Rho-tagged receptor was co-transfected with the olfactory canonical G-protein Golf and was exposed to a binary mixture of a single concentration of LYRAL® and a test compound.
A library of volatile compounds was used to create binary mixtures of each compound with LYRAL® at approximately EC20, a concentration eliciting only approximately 20% of full activity level of OR10J5 by itself. An activation cell-based assay was used for the initial enhancer candidate identification as disclosed in WO2019122236. Single binary mixture-induced receptor activity was detected by measuring the cAMP increase in the cytosol using an HTRF (Homogenous Time-Resolved Fluorescence unit) based kit (CisBio, cAMP dynamic 2 kit, 62AM4PEJ).
The 37 candidates remaining in Table 2 were identified and were tested in two parallel dose-response experiments to confirm the true enhancement properties of the potential candidates. First, a dose-response of each individual candidate was performed to determine if it was an agonist by itself. Second, the same candidate dose-response curve in the presence of EC20 LYRAL® concentration (generating 20% activity on OR10J5) was assessed for activity level increase.

OR10J5 [3] = molecular target: T2, OR10J5; test: LYRAL® dose-response with a steady concentration of test compound (EC50-fold shift); type: cell-based; settings: LYRAL® + steady concentration of compound vs LYRAL® alone
Description: as §2, §1
The EC50-fold shift was obtained by dividing the EC50 of LYRAL®+compound by the reference EC50 of LYRAL® alone. […]

OR10J5 [4] = molecular target: T2, OR10J5; test: (+−)-2,5-dimethyl-2-indanmethanol dose-response with a steady concentration of test compound; type: cell-based; settings: OR10J5
Description: OR10J5 activity enhancement was tested with an additional agonist and with one of the test compounds and conditions described in the Examples above. Dose response curves to (+−)-2,5-dimethyl-2-indanmethanol was obtained in the presence of a steady concentration of the test compound and compared to a dose-response curve of the agonist alone. The resulting enhancement was quantified by means of EC50-fold shift (potency increase) and the efficacy span ratio (efficacy increase) as described above.

[5] = Odor detection threshold (ODT) forced-choice triangle tests for LYRAL® with background odor; type: in vivo, human; settings: 28 panelists; enhancer at 0.1% vs neutral compound at 7%; main effect of Material p=0.03, interaction p=0.052
Description: Sensitivity of human individuals to LYRAL® was evaluated by performing an odor detection threshold (ODT) test. The ODT test consisted of identifying the concentration for which 50%, preferably 66%, of the panelists are able to determine which of three containers contains the target compound LYRAL® in a series of forced-choice triangle tests. Two tests were performed to calculate the ODT in mixtures containing LYRAL® plus a perceivable background odor of chemically similar molecules a) the enhancer, 3-(4-methylcyclohex-3-en-1-yl)butanal and b) the non-enhancing volatile compound, 3-[(1R)-4-methyl-3-cyclohexen-1-yl]-1-butanol. These two molecules are chemically similar. The perceived intensity of the two background odors was monitored to be isointense to control that the responses recorded answer were intensity independent.
28 panelists were given a series of triangle tests with increasing concentrations of LYRAL® in the presence of 3-(4-methylcyclohex-3-en-1-yl)butanal at a concentration of 0.1%. Within each triangle test, the three samples contained 3-(4-methylcyclohex-3-en-1-yl)butanal at 0.1% and one sample also contained LYRAL®. 28 panelists were given a series of triangle tests with increasing concentration of Lyral® in the presence of 3-[(1R)-4-methyl-3-cyclohexen-1-yl]-1-butanol at a concentration of 7%. […]

SMILES | EC50 fold shift of LYRAL® (potency increase) (Olfr16) [fold] | Kb (OR10J5 [1]) [µM] | α (cooperativity factor) (OR10J5 [1]; enhancer 0 to 600 μM, allosteric EC50 shift equation (Prism7), α>1 indicates positive allosteric modulation) | enhancement of OR10J5 LYRAL® activation (true enhancer) [2] | EC50 fold shift of LYRAL® (potency increase) (OR10J5 [3]) [fold] | EC50 fold shift of (+−)-2,5-dimethyl-2-indanmethanol (OR10J5 [4]; agonist + steady concentration of compound vs agonist alone) [fold] | efficacy increase (span ratio) of (+−)-2,5-dimethyl-2-indanmethanol (OR10J5 [4]; within the dynamic range of the dose response) [fold] | proportion of correct LYRAL® detection responses with increasing LYRAL® concentration [5]
CC(C=O)Cc1ccc2c(c1)OCO2 (stereo not drawn) [3-(1,3-benzodioxol-5-yl)-2-methylpropanal] | 5 | 10 | 6.3 | potent enhancement | 9.2 | 8.6 | 1.7 | 
CC1=CC[C@H](C(C)CC=O)CC1 (stereo partly drawn) [3-(4-methylcyclohex-3-en-1-yl)butanal] |  |  |  | potent enhancement |  |  |  | proportion of correct responses increased at a higher rate
